Measurements published in ChEMBL document CHEMBL4354815, “Fibrinolysis Inhibitors: Potential Drugs for the Treatment and Prevention of Bleeding” (J Med Chem, 2020).
One block for each compound: values may come before it.

Experiments:
Plasminogen [1] = target: T1, Plasminogen (Homo sapiens, UniProt P00747); experiment: Inhibition of human plasmin using tosyl-Gly-Pro-Lys-pNA as substrate after 10 mins by UV/Vis photometry
Plasma kallikrein [2] = target: T2, Plasma kallikrein (Homo sapiens, UniProt P03952); experiment: Inhibition of human plasma kallikrein using S2302 as substrate after 10 mins by UV/Vis photometry
T2 sequence (P03952 20-390 limits assumed): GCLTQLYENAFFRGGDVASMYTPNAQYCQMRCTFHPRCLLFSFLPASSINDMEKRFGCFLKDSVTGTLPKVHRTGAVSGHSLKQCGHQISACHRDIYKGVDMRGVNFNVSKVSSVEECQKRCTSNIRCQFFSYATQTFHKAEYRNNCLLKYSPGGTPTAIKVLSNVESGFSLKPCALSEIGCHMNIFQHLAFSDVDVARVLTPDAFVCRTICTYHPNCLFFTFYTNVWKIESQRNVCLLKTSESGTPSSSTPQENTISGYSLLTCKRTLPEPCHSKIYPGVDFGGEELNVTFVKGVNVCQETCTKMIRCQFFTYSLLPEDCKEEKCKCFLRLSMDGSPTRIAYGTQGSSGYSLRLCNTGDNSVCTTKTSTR
T2 sequence (P03952 391-638 limits assumed): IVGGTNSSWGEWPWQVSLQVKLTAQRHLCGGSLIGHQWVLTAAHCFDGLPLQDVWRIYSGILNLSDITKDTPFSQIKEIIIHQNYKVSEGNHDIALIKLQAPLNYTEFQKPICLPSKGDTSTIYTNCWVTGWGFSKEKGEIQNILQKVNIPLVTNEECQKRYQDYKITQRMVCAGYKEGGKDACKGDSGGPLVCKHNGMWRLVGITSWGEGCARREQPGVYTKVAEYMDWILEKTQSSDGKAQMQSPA

Plasma = experiment: Anti-fibrinolytic activity in 5% human plasma in presence of fibrinogen by spectrophotometric method; assay type: functional, cell-free
Plasminogen [3] = target: T1, Plasminogen; experiment: Inhibition of microplasmin (unknown origin) expressed in Pichia pastoris preincubated for 10 mins followed by S2251 substrate addition
Plasminogen [4] = target: T1, Plasminogen; experiment: Inhibition of plasmin (unknown origin) assessed as reduction in amidolytic activity using S-2251 as the substrate after 4 mins
Plasminogen [5] = target: T1, Plasminogen; experiment: Inhibition of human plasmin preincubated for 15 mins followed by MeOSuc-Ala-Phe-Lys-AMC substrate addition and measured after 30 mins by fluorescence method
Plasma kallikrein [6] = target: T2, Plasma kallikrein; experiment: Inhibition of human plasma kallikrein preincubated for 15 mins followed by H-Pro-Phe-Arg-AMC substrate addition and measured after 30 mins by fluorescence method
Coagulation factor XI = Coagulation factor XI (Homo sapiens, UniProt P03951); experiment: Inhibition of human factor 11a preincubated for 15 mins followed by Boc-Glu (OBzl) -Ala-Arg-AMC and measured after 30 mins by fluorescence method
Chain of Coagulation factor XI (P03951 19-387 limits assumed): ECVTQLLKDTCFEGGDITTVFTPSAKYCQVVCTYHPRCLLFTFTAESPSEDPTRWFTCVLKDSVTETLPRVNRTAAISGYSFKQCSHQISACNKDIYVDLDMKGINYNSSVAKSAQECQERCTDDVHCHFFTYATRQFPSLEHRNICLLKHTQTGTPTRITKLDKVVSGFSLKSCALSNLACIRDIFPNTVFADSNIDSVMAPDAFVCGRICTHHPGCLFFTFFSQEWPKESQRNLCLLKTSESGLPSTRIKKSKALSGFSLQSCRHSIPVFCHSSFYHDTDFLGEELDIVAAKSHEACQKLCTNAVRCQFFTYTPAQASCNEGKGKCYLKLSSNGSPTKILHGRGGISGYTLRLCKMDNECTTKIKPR
Chain of Coagulation factor XI (P03951 388-625 limits assumed): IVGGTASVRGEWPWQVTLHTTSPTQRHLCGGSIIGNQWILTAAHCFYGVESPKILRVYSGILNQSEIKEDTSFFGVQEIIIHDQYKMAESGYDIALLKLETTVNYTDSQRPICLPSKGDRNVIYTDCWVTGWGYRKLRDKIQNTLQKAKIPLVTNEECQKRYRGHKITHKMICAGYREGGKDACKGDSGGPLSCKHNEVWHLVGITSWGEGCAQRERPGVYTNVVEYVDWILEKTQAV

Prothrombin = Prothrombin (Homo sapiens, UniProt P00734); experiment: Inhibition of human factor 2a using Mes-d-Cha-Gly-Arg-pNA as substrate
[7] = Inhibition of human urinary kallikrein using H-D-Val-Leu-Arg-pNA as substrate
Coagulation factor X = Coagulation factor X (Homo sapiens, UniProt P00742); experiment: Inhibition of human factor 10a using MeOCO-d-Cha-Gly-Arg-pNA as substrate
Chain of Coagulation factor X (P00742 41-179 limits assumed): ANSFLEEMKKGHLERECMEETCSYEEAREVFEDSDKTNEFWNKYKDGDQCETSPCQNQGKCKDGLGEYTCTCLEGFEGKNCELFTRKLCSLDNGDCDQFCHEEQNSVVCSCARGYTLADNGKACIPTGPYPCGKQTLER
Chain of Coagulation factor X (P00742 235-488 limits assumed): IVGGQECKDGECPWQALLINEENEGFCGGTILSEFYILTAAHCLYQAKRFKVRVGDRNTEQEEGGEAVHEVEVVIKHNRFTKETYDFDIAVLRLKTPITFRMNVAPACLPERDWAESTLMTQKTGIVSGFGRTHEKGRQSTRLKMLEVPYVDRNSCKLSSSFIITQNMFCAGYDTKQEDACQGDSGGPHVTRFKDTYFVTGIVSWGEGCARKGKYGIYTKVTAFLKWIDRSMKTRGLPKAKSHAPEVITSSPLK

[8] = target: Vitamin K-dependent protein C (Homo sapiens, UniProt P04070); experiment: Inhibition of human activated protein […] C using H-D-Lys(Cbo)-Pro-Arg-pNA as substrate
Chain of Vitamin K-dependent protein C (P04070 43-197 limits assumed): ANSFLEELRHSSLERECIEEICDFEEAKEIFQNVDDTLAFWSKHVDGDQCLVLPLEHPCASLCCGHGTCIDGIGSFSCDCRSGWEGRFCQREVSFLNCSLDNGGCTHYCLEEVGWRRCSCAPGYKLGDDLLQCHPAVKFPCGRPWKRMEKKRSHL
Chain of Vitamin K-dependent protein C (P04070 212-461 limits assumed): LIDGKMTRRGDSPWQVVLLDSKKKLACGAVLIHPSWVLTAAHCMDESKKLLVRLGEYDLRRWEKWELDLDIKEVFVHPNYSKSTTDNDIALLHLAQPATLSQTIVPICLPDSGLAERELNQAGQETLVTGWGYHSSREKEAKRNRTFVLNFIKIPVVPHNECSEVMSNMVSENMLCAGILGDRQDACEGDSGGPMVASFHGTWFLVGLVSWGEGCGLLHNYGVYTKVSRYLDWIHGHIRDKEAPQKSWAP

[9] = target: T3, Complement C1s subcomponent (Homo sapiens, UniProt P09871); experiment: Inhibition of human Complement C1s subcomponent using Val-Ser-Arg-pNA as substrate
T3 sequence (P09871 whole entry): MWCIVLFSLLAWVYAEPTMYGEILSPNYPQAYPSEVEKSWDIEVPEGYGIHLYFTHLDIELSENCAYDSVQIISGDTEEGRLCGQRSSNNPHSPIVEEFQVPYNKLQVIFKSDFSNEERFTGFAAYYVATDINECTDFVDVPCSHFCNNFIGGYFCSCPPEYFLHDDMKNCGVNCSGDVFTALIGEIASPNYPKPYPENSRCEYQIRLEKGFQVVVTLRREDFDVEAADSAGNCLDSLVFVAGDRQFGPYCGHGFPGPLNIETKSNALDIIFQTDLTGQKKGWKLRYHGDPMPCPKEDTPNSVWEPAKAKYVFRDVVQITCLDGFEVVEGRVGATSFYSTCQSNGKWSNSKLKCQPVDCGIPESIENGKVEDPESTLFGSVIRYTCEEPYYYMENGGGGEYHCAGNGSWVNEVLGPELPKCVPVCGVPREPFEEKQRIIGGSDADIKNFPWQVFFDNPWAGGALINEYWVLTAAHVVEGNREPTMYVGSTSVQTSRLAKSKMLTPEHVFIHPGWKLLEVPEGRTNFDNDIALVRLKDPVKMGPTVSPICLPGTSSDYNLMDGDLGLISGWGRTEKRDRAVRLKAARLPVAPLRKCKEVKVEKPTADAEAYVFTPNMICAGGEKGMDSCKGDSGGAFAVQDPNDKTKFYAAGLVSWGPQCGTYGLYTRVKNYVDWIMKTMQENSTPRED

[10] = target: T4, Complement C1r subcomponent (Homo sapiens, UniProt P00736); experiment: Inhibition of human Complement C1r subcomponent using Val-Ser-Arg-pNA as substrate
T4 sequence (P00736 whole entry): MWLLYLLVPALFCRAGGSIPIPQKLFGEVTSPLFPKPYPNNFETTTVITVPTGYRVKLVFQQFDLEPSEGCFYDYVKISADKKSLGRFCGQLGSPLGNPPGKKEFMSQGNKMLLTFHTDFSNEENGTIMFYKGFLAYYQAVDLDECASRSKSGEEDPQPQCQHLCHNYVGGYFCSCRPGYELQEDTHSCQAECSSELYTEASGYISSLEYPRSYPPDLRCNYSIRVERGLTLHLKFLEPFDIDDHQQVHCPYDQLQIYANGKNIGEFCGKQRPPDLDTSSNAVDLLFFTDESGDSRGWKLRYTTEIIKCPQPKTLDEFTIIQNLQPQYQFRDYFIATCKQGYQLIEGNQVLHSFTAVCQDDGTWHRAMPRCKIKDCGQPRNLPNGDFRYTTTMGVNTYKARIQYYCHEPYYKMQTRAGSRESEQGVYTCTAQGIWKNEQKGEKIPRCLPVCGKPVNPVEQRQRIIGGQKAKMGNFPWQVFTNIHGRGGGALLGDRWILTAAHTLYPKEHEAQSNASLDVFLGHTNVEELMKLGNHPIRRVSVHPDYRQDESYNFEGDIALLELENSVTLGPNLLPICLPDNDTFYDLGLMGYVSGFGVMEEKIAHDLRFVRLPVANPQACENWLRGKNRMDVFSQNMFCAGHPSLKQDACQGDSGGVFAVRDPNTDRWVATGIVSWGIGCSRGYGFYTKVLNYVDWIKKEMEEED

Coagulation factor XII = target: T5, Coagulation factor XII (Homo sapiens, UniProt P00748); experiment: Inhibition of human factor 12a using CHA-Gly-Arg- pNA as substrate
T5 sequence (P00748 whole entry): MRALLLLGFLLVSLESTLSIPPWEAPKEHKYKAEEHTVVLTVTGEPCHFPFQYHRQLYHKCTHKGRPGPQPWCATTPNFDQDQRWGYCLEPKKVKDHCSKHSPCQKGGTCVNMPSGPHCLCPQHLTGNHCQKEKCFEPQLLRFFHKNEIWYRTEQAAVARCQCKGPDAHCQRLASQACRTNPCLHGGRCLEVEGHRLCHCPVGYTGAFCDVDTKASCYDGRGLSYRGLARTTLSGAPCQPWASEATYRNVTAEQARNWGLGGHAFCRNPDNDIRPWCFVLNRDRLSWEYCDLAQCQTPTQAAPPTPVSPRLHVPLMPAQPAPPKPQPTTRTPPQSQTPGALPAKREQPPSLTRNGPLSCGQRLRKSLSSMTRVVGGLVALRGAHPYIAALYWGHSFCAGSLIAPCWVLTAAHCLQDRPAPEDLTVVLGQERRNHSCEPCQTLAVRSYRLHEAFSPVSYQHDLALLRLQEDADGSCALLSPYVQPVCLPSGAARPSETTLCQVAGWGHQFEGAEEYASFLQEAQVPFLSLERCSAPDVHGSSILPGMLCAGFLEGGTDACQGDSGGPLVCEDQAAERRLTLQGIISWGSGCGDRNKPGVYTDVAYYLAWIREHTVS

[11] = target: Tissue-type plasminogen activator (Homo sapiens, UniProt P00750); experiment: Inhibition of human tissue-type plasminogen activator using Mes-d-Cha- Gly-Arg-pNA as substrate
Chain of Tissue-type plasminogen activator (P00750 whole entry): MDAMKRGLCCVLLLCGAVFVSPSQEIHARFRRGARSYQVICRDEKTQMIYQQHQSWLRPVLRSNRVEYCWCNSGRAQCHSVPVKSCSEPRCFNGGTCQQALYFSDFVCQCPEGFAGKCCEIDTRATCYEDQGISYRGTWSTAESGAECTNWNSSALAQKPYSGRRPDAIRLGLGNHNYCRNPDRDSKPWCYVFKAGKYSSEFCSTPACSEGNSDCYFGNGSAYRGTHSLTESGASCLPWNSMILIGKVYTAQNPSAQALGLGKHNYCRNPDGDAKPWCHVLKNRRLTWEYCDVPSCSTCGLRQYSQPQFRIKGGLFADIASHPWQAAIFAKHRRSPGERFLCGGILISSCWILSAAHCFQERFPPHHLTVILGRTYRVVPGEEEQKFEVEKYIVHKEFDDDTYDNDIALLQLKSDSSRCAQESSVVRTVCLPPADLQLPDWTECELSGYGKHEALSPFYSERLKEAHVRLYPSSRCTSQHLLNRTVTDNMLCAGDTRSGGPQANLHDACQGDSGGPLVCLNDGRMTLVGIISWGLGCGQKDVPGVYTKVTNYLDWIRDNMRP

T1 sequence (P00747 97-580 limits assumed): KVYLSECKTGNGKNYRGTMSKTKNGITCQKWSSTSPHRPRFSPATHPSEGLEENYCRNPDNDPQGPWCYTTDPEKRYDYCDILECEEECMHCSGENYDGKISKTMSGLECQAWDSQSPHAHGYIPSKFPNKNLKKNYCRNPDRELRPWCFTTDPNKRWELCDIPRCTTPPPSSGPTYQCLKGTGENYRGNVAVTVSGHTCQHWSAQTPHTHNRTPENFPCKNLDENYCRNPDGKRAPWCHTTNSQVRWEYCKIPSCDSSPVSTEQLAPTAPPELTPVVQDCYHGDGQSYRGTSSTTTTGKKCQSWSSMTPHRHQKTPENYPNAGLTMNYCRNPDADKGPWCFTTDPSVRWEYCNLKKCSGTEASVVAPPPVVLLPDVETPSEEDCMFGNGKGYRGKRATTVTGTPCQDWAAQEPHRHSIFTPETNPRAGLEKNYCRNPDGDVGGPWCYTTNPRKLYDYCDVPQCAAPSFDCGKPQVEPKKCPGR
T1 sequence (P00747 581-810 limits assumed): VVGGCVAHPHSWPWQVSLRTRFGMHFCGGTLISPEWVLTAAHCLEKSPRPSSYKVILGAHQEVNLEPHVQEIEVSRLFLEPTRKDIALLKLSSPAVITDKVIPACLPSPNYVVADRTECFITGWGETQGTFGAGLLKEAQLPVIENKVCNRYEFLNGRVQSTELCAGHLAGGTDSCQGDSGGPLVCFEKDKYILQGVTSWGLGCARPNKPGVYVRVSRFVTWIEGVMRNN

- Ki (Plasminogen [1]): 0.48 nM
- Ki (Plasma kallikrein [2]): 0.6 nM
Structure (SMILES): N=C(N)c1ccc(CNC(=O)[C@H](CCc2ccncc2)NC(=O)[C@@H](CCCc2ccccc2)NS(=O)(=O)Cc2ccccc2)cc1

- IC50 (Plasma): 10 nM
Structure (SMILES): C#Cc1cccc2nn3c(C4CCNCC4)cc(=O)[nH]c3c12

- IC50 (Plasma): 6 nM
Structure (SMILES): CCCc1noc(-c2c(C)nn3c(C4CCNCC4)cc(=O)[nH]c23)n1

- IC50 (Plasminogen [3]): 240 nM
Structure (SMILES): CCCCCCCCNC(=O)[C@H](Cc1ccc(OCc2ccncc2)cc1)NC(=O)[C@H]1CC[C@H](CN)CC1

- IC50 (Plasminogen [4]): 69000 nM
Structure (SMILES): CC[C@@H](C)[C@@H](N)C(=O)N[C@@H](Cc1ccccc1)C(=O)N[C@@H](CCCCN)C(=O)Nc1ccc(C(=O)c2ccccc2)cc1

- IC50 (Plasminogen [5]): 2.1 nM
- IC50 (Plasma kallikrein [6]): 0.7 nM
- IC50 (Coagulation factor XI): 6.5 nM
Structure (SMILES): Cc1cc2c(=O)c(C(=O)O)c[nH]c2cc1-c1ccc(C[C@H](NC(=O)[C@H]2CC[C@H](CN)CC2)C(=O)Nc2cc(Cl)c3[nH]c(=O)[nH]c3c2)cc1

- IC50 (Plasminogen [4]): 200000 nM
Structure (SMILES): NC[C@H]1CC[C@H](C(=O)N[C@@H](CCCCNC(=O)OCc2ccccc2)C(=O)COc2ccc(C(=O)c3ccccc3)cc2)CC1

- IC50 (Plasma): 11 nM
Structure (SMILES): O=c1cc(C2CCNCC2)n2nc3ccc(F)c(-c4ccccc4)c3c2[nH]1

- IC50 (Plasma): 8 nM
Structure (SMILES): O=C(c1cnn2c(C3CCNCC3)cc(=O)[nH]c12)C1CC1

- Ki (Prothrombin): > 1000 nM
- Ki [7]: > 1000 nM
- Ki (Coagulation factor X): > 1000 nM
- Ki [8]: > 1000 nM
- Ki [9]: > 1000 nM
- Ki [10]: > 1000 nM
- Ki (Coagulation factor XII): > 1000 nM
- Ki [11]: > 1000 nM
Structure (SMILES): N=C(N)c1ccc(CNC(=O)[C@H](CCC2CCNCC2)NC(=O)[C@@H](CCC2CCN(C(=O)C3CC3)CC2)NS(=O)(=O)Cc2ccccc2)cc1

- IC50 (Plasma): 8 nM
Structure (SMILES): CCC(C)C(=O)c1cnn2c(C3CCNCC3)cc(=O)[nH]c12 (centres undefined)

- Ki (Plasminogen [1]): 1.1 nM
- Ki (Plasma kallikrein [2]): 0.1 nM
Structure (SMILES): N=C(N)c1ccc(CNC(=O)[C@H](Cc2cccc(CN)c2)NC(=O)[C@@H](Cc2ccc3ccccc3c2)NS(=O)(=O)Cc2ccccc2)cc1

- IC50 (Plasminogen [4]): 12000 nM
Structure (SMILES): NCCCCCC(=O)N[C@@H](CCCCN)C(=O)Nc1ccc(C(=O)c2ccccc2)cc1
